Experimental data published in patent US12209111B2, “Targeting P18 for mTOR-related disorders” (WESTERN UNIVERSITY OF HEALTH SCIENCES, priority 2018, dated 2025).
Entries after “also recorded” stand apart in the source; their conditions may differ. Where a SMILES comes first, the peptide text is derived from it. The star is where a group is joined. Cbz = O=C(OCc1ccccc1)*

Legend:
p18 [1] = assay: Cultured hippocampal neurons treated with MG132 or BafA, p18 immunofluorescence; assay type: cell-based, mouse; conditions: 4 h
mTOR signaling pathway = assay: mTOR signaling in Hela cells treated with p18 short peptides, Western blot; assay type: cell-based; conditions: for mTORC1 activation: Hela cells (FIG. 20C); for Effects: mTOR signaling pathway: Hela cells, TAT or TAT-2031 2 μM for 42 hr, ratios p-mTOR/mTOR, p-S6K1/S6K1, p-S6/S6
Protocol: (§1) (A) Amino acid sequence of human p18 (SEQ ID NO: 23). G2 is a myristoylation site. C3 and C4 are palmitoylation sites. K20, K31, K60, K103, K104, and K151 (red) are potential ubiquitination sites. Two short peptides around K20/31 and K151 (underlined) were respectively conjugated to the cell membrane transduction domain of HIV-1 Tat protein (TAT-2031 and TAT-151). […] Hela cells were stained with Lysotracker (red) and imaged live. Top panel, representative images of Lysotracker before and 30 min after TAT-2031 treatment are shown. Bottom panel, graph represents the distribution of lysosomes relative to the MTOC, normalized to the distance between the MTOC and the cell periphery. (C) Hela cells were incubated with TAT or TAT-2031 (2 μM) for 42 hr. Representative blots and quantification of p18, p-mTOR/mTOR, p-S6K1/S6K1, and p-S6/S6 in whole cell lysates are shown. N=2 independent experiments.
(§2) Example 9: Short peptides targeting p18 reduced mTOR activation and promoted peripheral positioning of lysosomes in HELA cells. To test whether blocking p18 ubiquitination and interruption of its interaction with other proteins could disrupt mTOR signaling and lysosome localization and function, we designed two small decoy peptides (TAT-2031 and TAT-151) targeting different domains of p18 containing lysine residues (FIG. 20A); these peptides are conjugated to the cell membrane transduction domain of HIV-1 Tat protein. […] SEQ ID NO:19 corresponds to […], residues 20-31 of p18.

Hela cell [2] = assay: Lysosome positioning in Hela cells (Lysotracker live imaging); assay type: cell-based; conditions: for lysosome distribution to the peripheral region of the cell: before and 30 min after treatment (FIG. 20B)
Protocol: as §1, §2

p18 [3] = assay: Acute hippocampal slices treated with proteasome or lysosome inhibitor, p18 Western blot; assay type: cell-based, mouse; conditions: 30 min
Protocol: Acute Hippocampal Slice Preparation. Adult male mice (2-4-month-old) were anesthetized with gaseous isoflurane and decapitated. Brains were quickly removed and transferred to oxygenated, ice-cold cutting medium (in mM): 124 NaCl, 26 NaHCO3, 10 glucose, 3 KCl, 1.25 KH2PO4, 5 MgSO4, and 3.4 CaCl2. Hippocampal transversal slices (400 μm-thick) were prepared using a McIlwain-type tissue chopper and transferred to i) an interface recording chamber and exposed to a warm, humidified atmosphere of 95% O2/5% CO2 and continuously perfused with oxygenated and preheated (33±0.5° C.) artificial cerebrospinal fluid (aCSF) (in mM) [110 NaCl, 5 KCl, 2.5 CaCl2, 1.5 MgSO4, 1.24 KH2PO4, 10 D-glucose, 27.4 NaHCO3], perfused at 1.4 ml/min (electrophysiology); or ii) a recovery chamber with a modified aCSF medium, containing (in mM): 124 NaCl, 2.5 KCl, 2.5 CaCl2, 1.5 MgSO4, 1.25 NaH2PO4, 24 NaHCO3, 10 D-glucose, and saturated with 95% O2/5% CO2 for 1 h at 37° C. (biochemical assays).
To determine whether Ube3a-mediated regulation of p18 was proteasome- and/or lysosome-dependent, acute hippocampal slices from WT and AS mice were treated with either a proteasome inhibitor, MG132 (10 μM), or a lysosome inhibitor, the vacuolar H+-ATPase (V-ATPase) inhibitor, bafilomycin A1 (BafA, 100 nM), for 30 min.

Hela cell [4] = assay: Migration of Hela cell; assay type: cell-based
p18-TRPML1 interaction = p18-TRPML1 interaction (Homo sapiens, UniProt Q6IAA8); assay: p18-TRPML1 interaction
Chain of p18-TRPML1 interaction (Q9GZU1 whole entry partner): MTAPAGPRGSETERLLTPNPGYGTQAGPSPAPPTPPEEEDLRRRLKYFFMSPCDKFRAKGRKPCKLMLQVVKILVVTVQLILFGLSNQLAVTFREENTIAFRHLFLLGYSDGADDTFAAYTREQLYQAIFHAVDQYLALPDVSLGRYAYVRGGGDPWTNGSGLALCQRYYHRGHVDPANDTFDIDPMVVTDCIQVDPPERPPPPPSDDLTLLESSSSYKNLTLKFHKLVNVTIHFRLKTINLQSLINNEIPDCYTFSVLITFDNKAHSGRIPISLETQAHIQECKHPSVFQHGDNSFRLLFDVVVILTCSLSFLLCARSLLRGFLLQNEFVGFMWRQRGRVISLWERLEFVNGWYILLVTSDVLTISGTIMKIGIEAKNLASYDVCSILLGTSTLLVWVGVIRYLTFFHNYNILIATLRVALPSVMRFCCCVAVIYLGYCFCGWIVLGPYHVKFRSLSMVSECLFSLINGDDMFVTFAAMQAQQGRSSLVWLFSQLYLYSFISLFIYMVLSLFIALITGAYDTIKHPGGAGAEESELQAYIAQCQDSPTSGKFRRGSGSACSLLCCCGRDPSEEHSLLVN
Chain of p18-TRPML1 interaction (Q6IAA8 whole entry): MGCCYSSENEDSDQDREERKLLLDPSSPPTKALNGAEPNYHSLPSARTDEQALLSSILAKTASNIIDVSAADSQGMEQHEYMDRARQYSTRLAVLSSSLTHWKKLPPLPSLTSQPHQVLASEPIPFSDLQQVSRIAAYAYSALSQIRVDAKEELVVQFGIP
Excerpt: as §2

mTOR = molecular target: T1, mTOR (Mus musculus, UniProt Q9JLN9); assay: MHY1485 treatment of hippocampal slices from p18 siRNA-injected WT mice (LTP, Western blot); assay type: cell-based; conditions: 2 μM, 60 min pre-incubation, to levels of control siRNA-injected WT mice
T1 construct: Pre-incubation of hippocampal slices with MHY1485 (2 μM) for 60 min reestablished TBS-elicited LTP; from tissue; host or cells: acute hippocampal slices from AAV p18 siRNA- or control siRNA-injected WT mice
Protocol: Electrophysiology. After 1.5 h incubation at 33±0.5° C. in the recording chamber, a single glass pipette filled with 2 M NaCl was used to record field EPSPs (fEPSPs) elicited by stimulation of the Schaffer collateral pathway with twisted nichrome wires (single bare wire diameter, 50 μm) placed in CA1 stratum radiatum. Stimulation pulses were generated using a Multichannel Systems Model STG4002 Stimulator (Reutlingen, Germany). Responses were recorded through a differential amplifier (DAM 50, World Precision Instruments, USA) with a […]. Before each experiment, the input/output (I/O) relation was examined by varying the intensity of the stimulation. Paired-pulse facilitation was tested at 20-300 ms interval. Long-term potentiation (LTP) was induced using theta burst stimulation (10 bursts at 5 Hz, each burst consisting of 4 pulses at 100 Hz, with a pulse duration of 0.2 ms). For LTP and paired-pulse facilitation experiments, the stimulation intensity was regulated to a current which elicited a 40% of maximal response. Data were collected and digitized by Clampex, and the slope of fEPSP was analyzed. […] All data are expressed as means±SEM, and statistical significance of differences between means was calculated with appropriate statistical tests as indicated in figure legends.

Molecule | mTORC1 activation (mTOR signaling pathway) | Effects: mTOR signaling pathway (mTOR signaling pathway) | lysosome distribution to the peripheral region of the cell (Hela cell [2]) | Effects: Migration of Hela cell (Hela cell [4]) | Effects: p18-TRPML1 interaction (p18-TRPML1 interaction) | other results
CO/C1=C\C(C)=C\[C@@H](C)[C@@H](O)[C@@H](C)C/C(C)=C/C=C/[C@H](OC)[C@@H]([C@@H](C)[C@@H](O)[C@H](C)[C@@]2(O)C[C@@H](O)[C@H](C)[C@@H](C(C)C)O2)OC1=O [BafA, bafilomycin A1] | – | – | – | – | – | p18 intensity (p18 [1]; cultured hippocampal neurons from both WT and AS mice, 100 nM): only slightly increased
TAT-151: Short p18 peptide around K151 conjugated to HIV-1 Tat transduction domain: YGRKKRRQRRRKEELVV | not | Little | not | – | – | –
CC(C)C[C@@H](C=O)NC(=O)[C@H](CC(C)C)NC(=O)[C@H](CC(C)C)NC(=O)OCc1ccccc1 [MG132] (Cbz-Leu-Leu-Leu-aldehyde) | – | – | – | – | – | p18 intensity (p18 [1]; cultured hippocampal neurons from WT mice, 10 μM): markedly increased; p18 levels in AS slices (p18 [3]; acute hippocampal slices from AS mice, MG132 10 μM): marginally; p18 levels in WT slices (p18 [3]; acute hippocampal slices from WT mice, MG132 10 μM or BafA 100 nM): significantly increased
TAT: Cell membrane transduction domain of HIV-1 Tat protein, YGRKKRRQRRR; control peptide [reference compound] | – | No | – | No | No | Effects: Lysosome positioning in Hela cell (Hela cell [2]): No
O=[N+]([O-])c1ccc(Nc2nc(N3CCOCC3)nc(N3CCOCC3)n2)cc1 [MHY1485] | – | – | – | – | – | TBS-elicited LTP (mTOR): reestablished
TAT-2031: p18 residues 20-31 (KLLLDPSSPPTK) conjugated to HIV-1 Tat transduction domain: YGRKKRRQRRRKLLLDPSSPPTK | significantly reduced | – | increased; also recorded: shifted the distribution of lysosomes toward the cell periphery | Slightly reduced | Reduced the | lysosome distribution to the peripheral region of the cell (Hela cell [2]; listed as short decoy peptide around K20/31): increased
